Laboratory results taken from patent publication US20170105920A1, “COSMETIC METHOD USING METAL PHTHALOCYANINE DERIVATIVE” (I'FORET CO., LTD., priority 2010, published 2017).

Assay: Effectiveness test on suppression of fading, one week at 50° C., visual evaluation
Assay type: physicochemical
Method: Each beauty essence was kept for one week at 50° C. and its stability was visually evaluated compared to the beauty essence immediately after preparation.
Expert testers judged the beauty essences tested on a scale of three as specified below: […]

O=C([O-])CN(CCN(CC(=O)O)CC(=O)O)CC(=O)[O-].[Na+].[Na+] [EDTA-2Na, sodium EDTA-2]
Judgment of appearance (anti-fading) (anti-fading component 0.10% in recipe of Example 4 (0.01% iron phthalocyanine tetracarboxylic acid)): Δ~X | fading (in words) (component blended by 0.1%): Marked fading | fading (in words) (component blended by 0.2%): some fading

O=P(O)(O)O[C@H]1[C@H](OP(=O)(O)O)[C@@H](OP(=O)(O)O)[C@H](OP(=O)(O)O)[C@@H](OP(=O)(O)O)[C@H]1OP(=O)(O)O [Phytic acid, phytic acid]
fading (in words) (component blended by 0.05%): hardly any fading | fading (in words) (component blended by 0.1%): hardly any fading
